Reference: patent US20240158418A1 (C4 Therapeutics, Inc., priority 2021, published 2024)
Like-named read-outs stand apart in the source and are kept apart here.

What was measured:
[1] = system: BaF3 cells expressing EGFR L858R-T790M; test: Ba/F3 EGFR cell viability (CellTiter-Glo), L858R-T790M; assay type: cell-based; details: Mus musculus, read-out: CTGlo (GI50)
From the text: (§1) RPMI 1640 media, cell culture flasks, and 384-well microplates were purchased from VWR (Radnor, PA, USA). Fetal bovine serum (FBS) was purchased from Life Technologies (Carlsbad, CA, USA) and CellTiter-Glo® was purchased from Promega (Madison, WI, USA). The Ba/F3 parental cell line was purchased from CrownBio (Santa Clara, CA). BaF3 cell lines ectopically expressing the EGFR mutations L858R, L858R-T790M, L858R-C797S, and L858R-T790M-C797S were purchased from CrownBio and EGFR mutations L858R-L718Q, L858R-T790M-L718Q, L858R-L792H, and L858R-T790M-L792H, were purchased from Signosis (Santa Clara, CA).
(§2) Cell viability was assessed based on the quantification of ATP using the CellTiter-Glo® assay (Promega, Madison, WI, USA). To determine the effect of compounds on cell viability, all Ba/F3 cell lines were plated at a cell density of 2000 cells/well in 384-well plates using RPMI 1640+10% FBS and treated with compounds of interest using a 10-point half-log dilution series in duplicate for 72 hours, with the highest dose set at […]. CellTiter-Glo® reagent was then added and luminescence signals were measured using an EnVision™ Multimode plate reader (Perkin Elmer, Santa Clara, CA). For data normalization, cells untreated with the test compounds at Time=72 hours were set to 100% (equivalent to maximal cell growth after 72 hours); cells untreated with the test compounds at Time=0 hours were set to 0% (equivalent to cytostasis); and media-only wells were set to −100% (equivalent to complete cytotoxicity). % Viability was determined by normalizing the signal with positive and DMSO treated negative controls on the same microtiter plate. The half-maximal inhibition of cell growth (GI50) is computed from where the fitted curve crosses 50% while the half-maximal lethal dose (LD50) is computed from where the fitted curve crosses −50%.

pY1068 EGFR L858R = target: T1, pY1068 EGFR L858R (Homo sapiens, UniProt P00533, L858R); test: Phospho-EGFR (pY1068) inhibition HTRF, NCI-H3255; assay type: cell-based; details: 6 hours, read-out: pEGFR IC50
T1 construct: NCI-H3255 (harboring EGFR heterozygous L858R mutation); host or cells: NCI-H3255
T1 sequence (P00533 25-1210 L858R): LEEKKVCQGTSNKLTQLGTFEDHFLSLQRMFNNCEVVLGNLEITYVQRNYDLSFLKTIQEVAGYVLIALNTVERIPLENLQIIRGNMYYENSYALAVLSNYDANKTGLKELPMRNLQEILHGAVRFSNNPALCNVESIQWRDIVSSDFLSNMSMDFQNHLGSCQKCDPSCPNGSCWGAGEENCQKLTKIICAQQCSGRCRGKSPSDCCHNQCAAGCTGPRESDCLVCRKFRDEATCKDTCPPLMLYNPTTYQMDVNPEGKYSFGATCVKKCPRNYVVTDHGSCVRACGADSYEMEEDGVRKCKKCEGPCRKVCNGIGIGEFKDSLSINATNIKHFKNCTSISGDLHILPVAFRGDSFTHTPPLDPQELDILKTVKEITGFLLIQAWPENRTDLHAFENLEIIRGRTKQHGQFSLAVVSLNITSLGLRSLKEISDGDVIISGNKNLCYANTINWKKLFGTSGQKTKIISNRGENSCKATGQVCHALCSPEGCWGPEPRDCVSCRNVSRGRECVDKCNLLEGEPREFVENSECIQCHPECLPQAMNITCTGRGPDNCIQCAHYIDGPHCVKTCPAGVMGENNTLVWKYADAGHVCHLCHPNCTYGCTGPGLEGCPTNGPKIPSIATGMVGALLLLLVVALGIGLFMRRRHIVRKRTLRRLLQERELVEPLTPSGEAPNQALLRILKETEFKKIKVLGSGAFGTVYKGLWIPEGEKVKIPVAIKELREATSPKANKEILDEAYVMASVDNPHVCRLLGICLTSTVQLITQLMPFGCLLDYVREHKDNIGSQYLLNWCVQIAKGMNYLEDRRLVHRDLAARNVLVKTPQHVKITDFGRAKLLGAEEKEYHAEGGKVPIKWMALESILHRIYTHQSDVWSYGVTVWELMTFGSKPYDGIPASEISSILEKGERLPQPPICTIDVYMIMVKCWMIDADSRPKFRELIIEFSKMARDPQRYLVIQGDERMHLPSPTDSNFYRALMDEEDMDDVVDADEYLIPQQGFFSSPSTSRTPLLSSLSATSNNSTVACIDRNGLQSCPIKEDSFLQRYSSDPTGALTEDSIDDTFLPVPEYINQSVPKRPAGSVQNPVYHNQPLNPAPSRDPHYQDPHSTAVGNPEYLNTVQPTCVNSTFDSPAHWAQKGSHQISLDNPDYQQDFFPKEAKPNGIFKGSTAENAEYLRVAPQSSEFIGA
From the text: (§3) NCI-H1975 (harboring EGFR heterozygous L858R-T790M mutations) and NCI-H3255 (harboring EGFR heterozygous L858R mutation) were purchased from ATCC and NCI, respectively. NCI-H1975+CS (harboring EGFR heterozygous L858R-T790M-C797S mutations) was generated using CRISPR technology to introduce the additional C797S mutation by Horizon Discovery. A431 (harboring EGFR wildtype) was purchased from ATCC. RPMI 1640 no-phenol red medium and fetal bovine serum (FBS) were purchased from Gibco (Grand Island, NY, USA). Cell culture flasks and 384-well microplates were acquired from VWR (Radnor, PA, USA). Phosphorylated (pY1068) EGFR and Total EGFR (using L858R-specific detection antibody and pan-EGFR antibody for EGFR mutant cell lines and EGFR wild-type cell lines, respectively) HTRF assay kits were purchased from Cisbio (Bedford, MA, USA).
(§4) Degradation of EGFR protein containing L858R mutation or wild-type was determined based on quantification of FRET signal using a Total EGFR (L858R-specific or pan-EGFR detecting) HTRF assay kit. Phospho-EGFR (pEGFR) inhibition was determined based on quantification of FRET signal using a pY1068 EGFR HTRF assay kit. In separate assay plates, test compounds were added to the 384-well plate from a top concentration of 10 μM with 11 points, half log titration in duplicates. For each assay, 12.5 uL of cells suspended in assay media (RPMI 1640 no-phenol red medium+10% FBS) at cell densities indicated for each cell line in Table 8 below were dispensed using a multi-channel pipette to 384-well low volume white HTRF microplates containing a duplicate concentration range of test compounds and DMSO controls. The plates were kept at 37° C. with 5% CO2 for 6 hours and then incubated with either phospho EGFR or Total EGFR HTRF detection antibodies according to the cell line and EGFR mutant being assayed. Cells treated in the absence of the test compound were the negative control. Positive control was set by wells containing all reagents but no cells. FRET signal was acquired on EnVision™ Multilabel Reader (PerkinElmer, Santa Clara, CA, USA). Compound concentration that achieves 50% degradation and inhibition was reported as DC50 and IC50, respectively.

[2] = system: engineered triple mutant EGFR (L858R-T790M-C797S) BaF3 tumors; test: BaF3 triple mutant EGFR allograft efficacy; assay type: in vivo, female BALB/c nude mice; details: for efficacy on BaF3 tumor volume: Compound 1 or 2 at 20, 50, 100 mg/kg/day PO BID, osimertinib 25 mg/kg/day PO QD, 14 days
Experimental: Each Compound was administered BID (twice a day) orally (PO).
Tumor volume was measured twice weekly in two dimensions using calipers, and volume (mm^3) was calculated using the formula: V=0.5 a×b^2 where a and b are the long and short diameters of the tumor in mm, respectively. […] Treatment began on Day 0 with established subcutaneous BaF3 tumors with a mean tumor volume (MTV) of 108 mm^3.
Body weight and MTV were measured on a 2× weekly schedule. Statistical analysis was performed using a one-way ANOVA followed by Dunnett's multiple comparison test. Data are expressed as MTV±SEM.

pY1068 EGFR L858R-T790M = target: T2, pY1068 EGFR L858R-T790M (Homo sapiens, UniProt P00533, L858R/T790M); test: Phospho-EGFR (pY1068) inhibition HTRF, NCI-H1975; assay type: cell-based; details: 6 hours, read-out: pEGFR IC50
T2 construct: NCI-H1975 (harboring EGFR heterozygous L858R-T790M mutations); host or cells: NCI-H1975
T2 sequence (P00533 25-1210 T790M/L858R): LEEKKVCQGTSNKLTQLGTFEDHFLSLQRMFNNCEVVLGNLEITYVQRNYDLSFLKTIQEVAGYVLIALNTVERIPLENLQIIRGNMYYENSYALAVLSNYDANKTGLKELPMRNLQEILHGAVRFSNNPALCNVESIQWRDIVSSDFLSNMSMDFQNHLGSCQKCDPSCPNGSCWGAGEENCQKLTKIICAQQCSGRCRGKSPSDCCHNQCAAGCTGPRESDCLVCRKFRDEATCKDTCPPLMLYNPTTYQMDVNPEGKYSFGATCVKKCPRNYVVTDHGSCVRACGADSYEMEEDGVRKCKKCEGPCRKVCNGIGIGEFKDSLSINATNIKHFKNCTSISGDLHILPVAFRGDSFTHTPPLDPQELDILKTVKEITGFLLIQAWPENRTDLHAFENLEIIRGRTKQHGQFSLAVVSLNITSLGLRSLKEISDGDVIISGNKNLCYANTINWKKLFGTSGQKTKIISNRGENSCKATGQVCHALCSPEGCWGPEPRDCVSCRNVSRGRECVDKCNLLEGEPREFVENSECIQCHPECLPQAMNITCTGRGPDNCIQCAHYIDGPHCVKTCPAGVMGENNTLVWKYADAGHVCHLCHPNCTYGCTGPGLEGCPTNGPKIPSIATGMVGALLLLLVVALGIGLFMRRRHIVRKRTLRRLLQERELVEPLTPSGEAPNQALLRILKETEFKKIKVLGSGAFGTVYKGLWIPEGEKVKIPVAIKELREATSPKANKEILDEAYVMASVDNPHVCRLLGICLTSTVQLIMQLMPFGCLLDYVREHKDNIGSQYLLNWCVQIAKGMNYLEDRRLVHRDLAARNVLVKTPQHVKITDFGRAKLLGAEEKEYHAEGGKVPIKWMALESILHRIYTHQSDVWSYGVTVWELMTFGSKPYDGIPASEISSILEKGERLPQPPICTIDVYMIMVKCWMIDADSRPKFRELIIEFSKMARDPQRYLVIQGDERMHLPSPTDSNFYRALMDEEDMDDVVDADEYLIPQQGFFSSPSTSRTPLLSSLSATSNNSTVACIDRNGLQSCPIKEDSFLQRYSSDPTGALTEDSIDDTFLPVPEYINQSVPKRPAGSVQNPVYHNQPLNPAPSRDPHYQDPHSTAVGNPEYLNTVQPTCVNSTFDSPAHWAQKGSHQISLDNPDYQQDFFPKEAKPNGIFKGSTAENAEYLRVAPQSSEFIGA
From the text: as §3, §4

EGFR L858R = EGFR L858R (Homo sapiens, UniProt P00533, L858R); test: EGFR degradation, Total EGFR (L858R-specific) HTRF, NCI-H3255; assay type: cell-based; design: NCI-H3255 (harboring EGFR heterozygous L858R mutation); host or cells: NCI-H3255; details: 6 hours
Chain of EGFR L858R (P00533 25-1210 L858R): as the sequence (P00533 25-1210 L858R) above
Outline: (§5)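 FRET signal from HTRF kits measured phospho-EGFR at pY1068 or total EGFR after 6 h treatment at 37 °C. Compounds ran as 11-point half-log dilutions from 10 μM in duplicate, in cells in phenol red-free RPMI with 10% FBS. Concentrations giving 50% inhibition or degradation were reported as IC50 or DC50.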

EGFR L858R-T790M-C797S = target: T3, EGFR L858R-T790M-C797S (Homo sapiens, UniProt P00533, C797S/L858R/T790M); test: EGFR degradation, Total EGFR (L858R-specific) HTRF, NCI-H1975+CS; assay type: cell-based; details: 6 hours
T3 construct: generated using CRISPR technology to introduce the additional C797S mutation by Horizon Discovery; host or cells: NCI-H1975+CS (CRISPR knock-in of C797S)
T3 sequence (P00533 25-1210 T790M/C797S/L858R): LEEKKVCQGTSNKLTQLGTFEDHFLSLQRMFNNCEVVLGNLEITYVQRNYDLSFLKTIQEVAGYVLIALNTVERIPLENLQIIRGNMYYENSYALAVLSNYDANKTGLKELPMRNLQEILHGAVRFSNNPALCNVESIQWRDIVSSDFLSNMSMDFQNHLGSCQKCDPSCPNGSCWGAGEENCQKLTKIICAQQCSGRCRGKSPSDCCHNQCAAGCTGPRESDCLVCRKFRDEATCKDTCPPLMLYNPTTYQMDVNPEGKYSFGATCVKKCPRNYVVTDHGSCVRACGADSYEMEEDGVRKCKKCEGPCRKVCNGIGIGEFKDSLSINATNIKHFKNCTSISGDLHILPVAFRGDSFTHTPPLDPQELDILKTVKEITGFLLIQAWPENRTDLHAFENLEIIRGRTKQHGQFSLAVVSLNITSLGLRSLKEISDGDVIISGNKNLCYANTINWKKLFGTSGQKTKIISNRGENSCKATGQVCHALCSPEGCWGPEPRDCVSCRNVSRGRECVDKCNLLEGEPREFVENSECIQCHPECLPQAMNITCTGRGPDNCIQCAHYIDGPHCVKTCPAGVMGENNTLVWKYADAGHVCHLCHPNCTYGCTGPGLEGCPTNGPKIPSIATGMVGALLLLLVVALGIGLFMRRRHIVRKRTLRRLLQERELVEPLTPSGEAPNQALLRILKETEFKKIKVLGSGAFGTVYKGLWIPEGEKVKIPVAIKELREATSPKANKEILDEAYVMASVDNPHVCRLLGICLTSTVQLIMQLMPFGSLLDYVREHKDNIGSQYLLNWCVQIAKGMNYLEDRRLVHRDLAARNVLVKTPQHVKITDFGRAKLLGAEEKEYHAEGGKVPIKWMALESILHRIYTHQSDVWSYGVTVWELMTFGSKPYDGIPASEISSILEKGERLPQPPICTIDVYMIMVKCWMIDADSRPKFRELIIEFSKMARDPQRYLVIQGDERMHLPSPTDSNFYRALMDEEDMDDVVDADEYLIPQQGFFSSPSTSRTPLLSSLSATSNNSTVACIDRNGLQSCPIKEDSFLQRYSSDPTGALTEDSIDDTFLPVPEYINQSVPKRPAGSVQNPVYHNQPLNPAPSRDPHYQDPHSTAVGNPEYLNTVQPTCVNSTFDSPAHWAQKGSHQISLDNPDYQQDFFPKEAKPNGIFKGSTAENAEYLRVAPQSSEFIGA
Outline: as §5

[3] = system: BaF3 cells expressing EGFR L858R-T790M-C797S; test: Ba/F3 EGFR cell viability (CellTiter-Glo), L858R-T790M-C797S; assay type: cell-based; details: Mus musculus, read-out: CTGlo (GI50)
From the text: as §1, §2

[4] = H3255 (L858R), read-out: tEGFR DC50
[5] = Table 9A, NCI-H3255 cells, Total EGFR HTRF, read-out: H3255 EGFR DC50
[6] = H1975 + CS (L858R-T790M-C797S), read-out: tEGFR DC50
[7] = Table 9A, NCI-H1975+CS cells, Total EGFR HTRF, read-out: H1975+ CS EGFR DC50

SMILES | GI50 [1] [nM] | IC50 (pY1068 EGFR L858R) [nM] | tumor regression ([2]; BaF3 EGFR-L858R-T790M-C797S allograft mouse model, oral dosing) [%] | efficacy on BaF3 tumor volume [2] | IC50 (pY1068 EGFR L858R-T790M) [nM] | DC50 (EGFR L858R; [4]) [nM] | DC50 (EGFR L858R; [5]) [nM] | DC50 (EGFR L858R-T790M-C797S; [6]) [nM] | DC50 (EGFR L858R-T790M-C797S; [7]) [nM] | GI50 [3] [nM]
O=C1CC[C@H](Nc2ccc(N3CCC(O)(CC(=O)N4CC5(C4)CN(c4ccc(-c6cc(F)c7c(c6)C(=O)N(C(C(=O)Nc6nccs6)c6ncn8c6CCC8)C7)cc4)C5)CC3)c(F)c2)C(=O)N1 (stereo partly drawn) [Compound 1, 2-(6,7-dihydro-5H-pyrrolo[1,2-c]imidazol-1-yl)-2-[6-[4-[2-[2-[1-[4-[[(3S)-2,6-dioxo-3-piperidyl]amino]-2-fluoro-phenyl]-4-hydroxy-4-piperidyl]acetyl]-2,6-diazaspiro[3.3]heptan-6-yl]phenyl]-4-fluoro-1-oxo-isoindolin-2-yl]-N-thiazol-2-yl-acetamide] | 9 | 5 | 60 | reduced tumor volume | 9 | 5 | < 50 | 12 | < 50 | 7
Cn1nc(N2CCC(=O)NC2=O)c2ccc([C@H]3CCN(CC(=O)N4CC5(C4)CN(c4ccc(-c6cc(F)c7c(c6)C(=O)N(C(C(=O)Nc6nccs6)c6ncn8c6CCC8)C7)cc4)C5)CC3(F)F)cc21 (stereo partly drawn) [Compound 2, 2-(6,7-dihydro-5H-pyrrolo[1,2-c]imidazol-1-yl)-2-[6-[4-[2-[2-[(4R)-4-[3-(2,4-dioxohexahydropyrimidin-1-yl)-1-methyl-indazol-6-yl]-3,3-difluoro-1-piperidyl]acetyl]-2,6-diazaspiro[3.3]heptan-6-yl]phenyl]-4-fluoro-1-oxo-isoindolin-2-yl]-N-thiazol-2-yl-acetamide] | 6 | 8 |  | reduced tumor volume | 14 | 6 | < 50 | 19 | < 50 | 5
